Experimental data as given in patent US11814444B2, “Cyclic polypeptides for PCSK9 inhibition” (Ra Pharmaceuticals, Inc., priority 2018, dated 2023).
Numbered stars: 1 amine (or outer) side, 2 acyl side, 3 side chain; on linkers, the order of the positions; unused ones are H or OH. Bridge positions count the residues as written; N and C are the ends. Square brackets hold non-standard residues; d marks the D form. Peptide text beside a SMILES is read from it. X6 = CC(=O)Oc1ccc2c(c1)CN([*:1])[C@H](C(=O)[*:2])C2; Pyridine(2,6-diCH2) = c1cc(C[*:1])nc(C[*:2])c1; Trp(7-aza) = N[C@@H](Cc1c[nH]c2ncccc12)C(=O)O; X5 = O=C([C@H](Cc1cnco1)N[*:1])[*:2]; mXylylene = c1cc(C[*:1])cc(C[*:2])c1; 4Pal = N[C@@H](Cc1ccncc1)C(=O)O; Aad = N[C@@H](CCCC(=O)O)C(=O)O; Tle = CC(C)(C)[C@H](N)C(=O)O; S5 = C=CCCC[C@](C)(N)C(=O)O; Nva = CCC[C@H](N)C(=O)O; Aib = CC(C)(N)C(=O)O; Mpa = O=C(O)CCS

What was measured:
[1] = biological target: human PCSK9 / human LDLR EGFa domain interaction (Homo sapiens, UniProt Q8NBP7); experiment: TR-FRET assay of inhibition of the PCSK9-LDLR protein-protein interaction; assay type: binding; conditions: 20 nM avitag-biotinylated human PCSK9, 20 nM his-tagged human LDLR EGFa domain, 2 hours, room temperature
human PCSK9 / human LDLR EGFa domain interaction, sequence (Q8NBP7 153-692): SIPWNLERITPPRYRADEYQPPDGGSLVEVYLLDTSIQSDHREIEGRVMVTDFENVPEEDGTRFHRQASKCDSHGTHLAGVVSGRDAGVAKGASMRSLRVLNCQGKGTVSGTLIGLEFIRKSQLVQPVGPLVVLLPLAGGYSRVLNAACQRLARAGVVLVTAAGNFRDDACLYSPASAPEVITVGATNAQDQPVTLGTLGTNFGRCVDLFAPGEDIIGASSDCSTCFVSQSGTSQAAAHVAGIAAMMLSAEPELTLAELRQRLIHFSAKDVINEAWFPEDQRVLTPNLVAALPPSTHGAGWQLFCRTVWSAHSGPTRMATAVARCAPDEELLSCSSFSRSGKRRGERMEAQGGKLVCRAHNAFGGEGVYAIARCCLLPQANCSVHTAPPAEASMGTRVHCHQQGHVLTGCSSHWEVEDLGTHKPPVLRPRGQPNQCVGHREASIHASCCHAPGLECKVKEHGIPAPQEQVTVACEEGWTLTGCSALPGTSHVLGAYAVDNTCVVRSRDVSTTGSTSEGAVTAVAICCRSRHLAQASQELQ
human PCSK9 / human LDLR EGFa domain interaction, sequence (Q8NBP7 31-152 partner limits assumed): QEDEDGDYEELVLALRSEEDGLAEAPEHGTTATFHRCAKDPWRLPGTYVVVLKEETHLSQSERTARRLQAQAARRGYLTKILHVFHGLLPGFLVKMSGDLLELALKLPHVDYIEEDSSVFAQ
In short: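 Readout is the TR-FRET signal between europium anti-6×His on his-tagged LDLR EGFa domain and Ulight streptavidin on biotinylated PCSK9, both proteins at 20 nM and both detection reagents at 5 nM. Incubation lasted 2 hours at room temperature; compounds were run in dose-response with a 4-parameter fit.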

PCSK9 = PCSK9 (Homo sapiens, UniProt Q8NBP7); experiment: PCSK9 Alexa FRET Standard assay (displacement of AlexaFluor647 tagged cyclic peptide Reagent A); assay type: binding; conditions: 0.5 nM PCSK9, 20 nM AF cyclic peptide Reagent A
PCSK9, sequence (Q8NBP7 153-692): as the sequence (Q8NBP7 153-692) above
Procedure: A solution containing 1 nM biotinylated PCSK9+2.5 nM Lance Streptavidin Europium (Strep-Eu) was made in 50 mM HEPES pH 7.4, 0.15 M NaCl, 5 mM CaCl2), 0.01% BSA, and 0.01% Surfactant P20. A separate solution containing 40 nM of the AlexaFluor tagged cyclic peptide was made in the same buffer system. An Echo was used to transfer 0.750 ul of compound to an assay plate followed by the addition of 15 ul of PCSK9+Stept-Eu and 15 ul of AF peptide. The final assay volume was 30.750 ul containing 0.5 nM PCSK9, 1.25 nM Strep-Eu, and 20 nM AF cyclic peptide. The reaction was incubated at room temperature for at least two hours prior to fluorescence measurements using an Envision Multilabel Reader. IC50 values were determined by fitting data to a sigmoidal dose-response curve using nonlinear regression. Ki was then calculated from the IC50 and the KD of AF cyclic peptide. Counts (B-counts) of the europium-labeled PCSK9 were followed to observe if compounds were […]. A fall off of the B-counts likely indicated a false positive of inhibition. Data from this procedure was reported as “A=‘numerical value’ (nanomolar)”

Compound: C=CCCC[C@]1(C)NC(=O)[C@H](CCC)NC(=O)[C@H](Cc2ccc(O)cc2)NC(=O)[C@H](C)NC(=O)C(C)(C)NC(=O)[C@H](Cc2c[nH]c3ncccc23)NC(=O)[C@H]([C@@H](C)O)NC(=O)[C@@H]2CCCN2C(=O)[C@H](Cc2ccc(O)cc2)NC(=O)[C@H](C(C)(C)C)NC(=O)[C@@H](NC(C)=O)CCCC(=O)NCCCC[C@@H](C(N)=O)NC1=O [Compound 053] (Ac-[Aad][Tle]YPT[Trp(7-aza)][Aib]AY[Nva][S5]K-NH2; lactam 1-12)
- IC50 [1]: 21000 to 50000 nM
- IC50 (PCSK9): 1000 to 21000 nM

Compound: CCC[C@H](NC(=O)[C@@H](NC(=O)[C@@H](NC(=O)[C@H](Cc1ccc(O)cc1)NC(=O)[C@@H]1CSCc2cccc(n2)CSC[C@H](NC(=O)[C@@H](NC(=O)[C@H](CCC)NC(=O)[C@H](CCCCN)NC(C)=O)[C@@H](C)CC)C(=O)N[C@@H](Cc2ccc(O)cc2)C(=O)NCC(=O)NCC(=O)N[C@@H](CC(=O)O)C(=O)N1)[C@@H](C)CC)[C@@H](C)CC)C(N)=O [Compound 055] (Ac-K[Nva]ICYGGDCYII[Nva]-NH2; linker 4-9 via Pyridine(2,6-diCH2))
- IC50 [1]: 100 to 1000 nM
- IC50 (PCSK9): 1 to 100 nM

Compound: CCC[C@@H]1NC(=O)[C@H](Cc2c[nH]c3ncccc23)NC(=O)[C@H]([C@@H](C)O)NC(=O)[C@@H]2CCCN2C(=O)[C@H](Cc2ccc(O)cc2)NC(=O)[C@H](C(C)(C)C)NC(=O)[C@@H](NC(C)=O)CCCC(=O)NCCCC[C@@H](C(N)=O)NC(=O)[C@H]([C@@H](C)O)NC(=O)[C@H](CCC)NC(=O)[C@@H]2Cc3ccc(OC(C)=O)cc3CN2C(=O)[C@H](C)NC1=O [Compound 074] (Ac-[Aad][Tle]YPT[Trp(7-aza)][Nva]A[X6][Nva]TK-NH2; lactam 1-12)
- IC50 [1]: 100 to 1000 nM
- IC50 (PCSK9): 100 to 1000 nM

Compound: CCC[C@@H]1NC(=O)[C@H](Cc2c[nH]c3ncccc23)NC(=O)[C@H]([C@@H](C)O)NC(=O)[C@H](Cc2cnco2)NC(=O)[C@H](Cc2ccc(O)cc2)NC(=O)[C@H](C(C)(C)C)NC(=O)CCSCc2cccc(c2)CSC[C@@H](C(N)=O)NC(=O)[C@H]([C@@H](C)O)NC(=O)[C@H](CCC)NC(=O)[C@H](Cc2ccc(O)cc2)NC(=O)[C@H](CCC(=O)O)NC1=O [Compound 106] ([Mpa][Tle]Y[X5]T[Trp(7-aza)][Nva]EY[Nva]TC-NH2; linker 1-12 via mXylylene)
- IC50 [1]: 100 to 1000 nM
- IC50 (PCSK9): 1000 to 21000 nM

Compound: CCC[C@@H]1NC(=O)[C@H](Cc2c[nH]c3ncccc23)NC(=O)[C@H]([C@@H](C)O)NC(=O)[C@H](Cc2ccncc2)NC(=O)[C@H](Cc2ccc(O)cc2)NC(=O)[C@H](C(C)(C)C)NC(=O)CCSCc2cccc(c2)CSC[C@@H](C(N)=O)NC(=O)[C@H]([C@@H](C)O)NC(=O)[C@H](CCC)NC(=O)[C@H](Cc2ccc(O)cc2)NC(=O)[C@H](CCC(=O)O)NC1=O [Compound 112] ([Mpa][Tle]Y[4Pal]T[Trp(7-aza)][Nva]EY[Nva]TC-NH2; linker 1-12 via mXylylene)
- IC50 [1]: 100 to 1000 nM
- IC50 (PCSK9): 100 to 1000 nM

Compound: CCC[C@@H]1NC(=O)[C@H](Cc2c[nH]c3ncccc23)NC(=O)[C@H]([C@@H](C)O)NC(=O)[C@@H]2CCCN2C(=O)[C@H](Cc2ccc(O)cc2)NC(=O)[C@H](C(C)(C)C)NC(=O)CCSCc2cccc(c2)CSC[C@@H](C(N)=O)NC(=O)[C@H]([C@@H](C)O)NC(=O)[C@H](CCC)NC(=O)[C@H](Cc2ccc(O)cc2)NC(=O)[C@H](CCC(=O)O)NC1=O [Compound 155] ([Mpa][Tle]YPT[Trp(7-aza)][Nva]EY[Nva]TC-NH2; linker 1-12 via mXylylene)
- IC50 [1]: 1000 to 21000 nM
- IC50 (PCSK9): 1000 to 21000 nM

Compound: CC(=O)N[C@H]1CSCc2cccc(c2)CSC[C@@H](C(N)=O)NC(=O)[C@H]([C@@H](C)O)NC(=O)C(C)(C)NC(=O)[C@H](Cc2ccc(O)cc2)NC(=O)[C@H](C)NC(=O)C(C)(C)NC(=O)[C@H](Cc2c[nH]c3ncccc23)NC(=O)[C@H]([C@@H](C)O)NC(=O)[C@@H]2CCCN2C(=O)[C@H](Cc2ccc(O)cc2)NC(=O)[C@H](C(C)(C)C)NC1=O [Compound 179] (Ac-C[Tle]YPT[Trp(7-aza)][Aib]AY[Aib]TC-NH2; linker 1-12 via mXylylene)
- IC50 [1]: 21000 to 50000 nM
- IC50 (PCSK9): 1000 to 21000 nM
